This note sets out measurements from patent US7696184B2, “Amino-propanol derivatives as sphingosine-1-phosphate receptor modulator” (Novartis AG, priority 2003, dated 2010).

A word on the EC50: it is the concentration at which the effect is half-maximal. A lower EC50 goes with an effect from little substance.

SMILES strings stand for the structures.

For assay [1], the system named is peripheral blood lymphocytes. The assay is described as follows: In vivo: Blood Lymphocyte Depletion. Conditions: rats, p.o. The protocol:
B. In vivo: Blood Lymphocyte Depletion
A compound of formula I or the vehicle is administered orally by gavage to rats. Tail blood for hematological monitoring is obtained on day -1 to give the baseline individual values, and at 2, 6, 24, 48 and 72 hours after application. In this assay, the compounds of formula I deplete peripheral blood lymphocytes when administered at a dose of 0.03 to 3 mg/kg. For example, following results are obtained: depletion of peripheral blood lymphocytes by more than 50%

Assay [2] has as its target T1, human S1P receptor EDG-1 (S1P1) (Homo sapiens, UniProt P21453).
T1 construct: expressed in transfected cells
The experiment in a line: S1P receptor profiling, GTP[γ-35S] binding SPA, S1P1. Type of assay: biochemical. Conditions: for EC50: GTP[γ-35S] binding, membranes of transfected CHO or RH7777 cells. As to the method: (§1) Sphingosine-1-phosphate (S1P) Receptor Profiling
(§2) Agonist activities of compounds are tested on the human SIP receptors EDG-1 (S1P1), EDG-3 (S1P3), EDG-5 (S1P2), EDG-6 (S1P4) and EDG-8 (S1P5). […] The assay technology used is SPA (scintillation proximity based assay). Briefly, DMSO dissolved compounds are serially diluted and added to SPA-bead (Amersham-Pharmacia) immobilised S1P receptor expressing membrane protein (10-20 μg/well) in the presence of 50 mM Hepes, 100 mM NaCl, 10 mM MgCl2, 10 μM GDP, 0.1% fat free BSA and 0.2 nM GTP [γ-^35S] (1200 Ci/mmol). After incubation in 96 well microtiterplates at RT for 120 min, unbound GTP [γ-^35S] is separated by a centrifugation step. Luminescence of SPA beads triggered by membrane bound GTP [γ-^35S] is quantified with a TOPcount plate reader (Packard). EC50s are calculated using standard curve fitting software.
A general note: GTPγS is a poorly hydrolysed GTP analogue; its binding reports G protein activation.

Assay [3] deals with T2, human S1P receptor EDG-8 (S1P5) (Homo sapiens, UniProt Q9H228).
T2 construct: expressed in transfected cells
The assay is described as follows: S1P receptor profiling, GTP[γ-35S] binding SPA, S1P5. It counts as biochemical. The conditions noted are these: for EC50: GTP[γ-35S] binding, membranes of transfected CHO or RH7777 cells; for S1P5 mode of action: column beside S1P5 EC50. The protocol:
as §1, §2

The target of assay [4] is T3, human S1P receptor EDG-5 (S1P2) (Homo sapiens, UniProt O95136).
T3 construct: expressed in transfected cells
The assay is described as follows: S1P receptor profiling, GTP[γ-35S] binding SPA, S1P2. It counts as biochemical. The conditions noted are these: membranes of transfected CHO or RH7777 cells. The protocol:
as §1, §2

Assay [5] addresses T4, human S1P receptor EDG-3 (S1P3) (Homo sapiens, UniProt Q99500).
T4 construct: expressed in transfected cells
The experiment in a line: S1P receptor profiling, GTP[γ-35S] binding SPA, S1P3. Type of assay: biochemical. Conditions: membranes of transfected CHO or RH7777 cells. As to the method: as §1, §2

Assay [6] concerns the target T5, human S1P receptor EDG-6 (S1P4) (Homo sapiens, UniProt O95977).
T5 construct: expressed in transfected cells
T5 sequence (O95977 1-384): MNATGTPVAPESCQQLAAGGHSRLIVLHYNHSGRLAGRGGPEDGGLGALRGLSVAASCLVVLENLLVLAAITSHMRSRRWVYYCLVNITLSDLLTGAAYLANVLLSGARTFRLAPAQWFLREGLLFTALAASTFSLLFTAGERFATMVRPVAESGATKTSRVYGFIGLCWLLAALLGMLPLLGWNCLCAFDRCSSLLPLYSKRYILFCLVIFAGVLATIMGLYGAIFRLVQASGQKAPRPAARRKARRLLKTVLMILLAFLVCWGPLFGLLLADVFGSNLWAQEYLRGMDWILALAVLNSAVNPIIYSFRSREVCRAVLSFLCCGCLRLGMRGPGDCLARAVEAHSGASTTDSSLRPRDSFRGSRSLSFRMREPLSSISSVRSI
The assay is described as follows: S1P receptor profiling, GTP[γ-35S] binding SPA, S1P4. Type of assay: biochemical. The conditions noted are these: for EC50: GTP[γ-35S] binding, membranes of transfected CHO or RH7777 cells; for S1P4 mode of action: column beside S1P4 EC50. As to the method: as §1, §2

T3 sequence (O95136 whole entry): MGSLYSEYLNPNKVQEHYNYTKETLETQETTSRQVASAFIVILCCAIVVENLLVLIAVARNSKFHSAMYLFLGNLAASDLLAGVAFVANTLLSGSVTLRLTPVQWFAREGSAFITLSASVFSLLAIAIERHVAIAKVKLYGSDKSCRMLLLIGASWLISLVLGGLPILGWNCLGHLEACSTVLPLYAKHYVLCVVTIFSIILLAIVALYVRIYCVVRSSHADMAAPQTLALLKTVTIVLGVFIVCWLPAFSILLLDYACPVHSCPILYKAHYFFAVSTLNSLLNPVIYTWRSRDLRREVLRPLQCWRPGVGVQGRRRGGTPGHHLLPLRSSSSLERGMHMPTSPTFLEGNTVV
T2 sequence (Q9H228 whole entry): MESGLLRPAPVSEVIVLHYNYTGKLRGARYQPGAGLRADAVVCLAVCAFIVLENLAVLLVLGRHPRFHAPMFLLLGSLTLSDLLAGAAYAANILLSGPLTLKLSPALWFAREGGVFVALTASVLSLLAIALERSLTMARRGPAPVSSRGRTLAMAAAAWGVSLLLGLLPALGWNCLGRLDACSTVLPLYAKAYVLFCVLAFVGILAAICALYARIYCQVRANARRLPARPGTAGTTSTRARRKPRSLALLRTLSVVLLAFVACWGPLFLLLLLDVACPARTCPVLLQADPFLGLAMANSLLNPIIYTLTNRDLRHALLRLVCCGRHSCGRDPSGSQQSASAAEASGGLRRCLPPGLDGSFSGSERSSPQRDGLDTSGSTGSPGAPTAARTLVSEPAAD
T4 sequence (Q99500 whole entry): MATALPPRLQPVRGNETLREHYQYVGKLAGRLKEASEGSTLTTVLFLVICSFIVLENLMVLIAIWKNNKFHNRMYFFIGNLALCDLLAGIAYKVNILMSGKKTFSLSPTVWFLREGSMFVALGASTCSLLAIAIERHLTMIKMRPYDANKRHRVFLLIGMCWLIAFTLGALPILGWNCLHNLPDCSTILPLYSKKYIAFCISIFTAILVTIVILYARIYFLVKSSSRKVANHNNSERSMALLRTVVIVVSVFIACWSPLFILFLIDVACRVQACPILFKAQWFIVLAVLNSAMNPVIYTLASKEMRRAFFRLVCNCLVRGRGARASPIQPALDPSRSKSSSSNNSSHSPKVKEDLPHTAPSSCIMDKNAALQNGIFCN
T1 sequence (P21453 whole entry): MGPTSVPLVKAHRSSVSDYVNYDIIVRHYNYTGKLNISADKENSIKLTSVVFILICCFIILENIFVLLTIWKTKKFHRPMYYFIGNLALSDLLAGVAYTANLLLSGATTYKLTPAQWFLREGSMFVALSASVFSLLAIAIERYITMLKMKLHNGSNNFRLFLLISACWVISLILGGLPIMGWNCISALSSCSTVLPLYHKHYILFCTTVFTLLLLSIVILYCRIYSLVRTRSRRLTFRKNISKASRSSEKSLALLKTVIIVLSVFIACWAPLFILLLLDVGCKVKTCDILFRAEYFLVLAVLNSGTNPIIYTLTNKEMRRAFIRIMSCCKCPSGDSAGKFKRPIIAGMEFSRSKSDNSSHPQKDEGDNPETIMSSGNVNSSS

On to `CCCCCOc1c(Cl)cc(CC[C@@](C)(N)CO)cc1Cl` [Example 1, (R)-2-Amino-4-(3,5-dichloro-4-pentyloxy-phenyl)-2-methyl-butan-1-ol Hydrotriflate], for which the “dose giving depletion of peripheral blood lymphocytes by more than 50%” value (shortened to “dose giving depletion … by more than 50%”) in assay [1] (after 6 h) is given as 0.5 mg/kg; in assay [1] (after 48 h), > 1 mg/kg.
As to `CCCCCOc1c(Cl)cc(CC[C@@](C)(N)COP(=O)(O)O)cc1Cl` [Example 4, Phosphoric acid mono-[(R)-2-amino-4-(3,5-dichloro-4-pentyloxy-phenyl)-2-methyl-butyl]ester], in assay [2], the “S1P1 mode of action” value is “Agon”. Moreover, the EC50 in assay [2] is 0.2 nM; in assay [3] it was 0.2 nM; in assay [4], > 10000 nM; in assay [5], > 10000 nM; in assay [6], 0.2 nM. In addition, the “S1P5 mode of action” value in assay [3] is recorded as “Agon”. The “S1P4 mode of action” value in assay [6] is listed as “Agon”.
For the compound `COc1cc(CC[C@@](C)(N)CO)cc(Cl)c1OCCCC(F)(F)C(F)(F)F.Cl` [Example 5, (R)-2-Amino-4-[3-chloro-5-methoxy-4-(4,4,5,5,5-pentafluoro-pentyloxy)-phenyl]-2-methyl-butan-1-ol Hydrochloride], the “dose giving depletion … by more than 50%” value in assay [1] (after 6 h) is 0.2 mg/kg; in assay [1] (after 48 h), > 1 mg/kg.
Take `COc1cc(CC[C@@](C)(N)COP(=O)(O)O)cc(Cl)c1OCCCC(F)(F)C(F)(F)F` [Example 6, Phosphoric acid mono-{(R)-2-amino-4-[3-chloro-5-methoxy-4-(4,4,5,5,5-pentafluoro-pentyloxy)-phenyl]-2-methyl-butyl}ester]: the “S1P1 mode of action” value in assay [2] was “Agon”. Moreover, the EC50 in assay [2] is 1.3 nM; in assay [3] it was 0.2 nM; in assay [4], > 10000 nM; in assay [5], > 10000 nM; in assay [6], 0.8 nM. Further, the “S1P5 mode of action” value in assay [3] is “Agon”. Besides, the “S1P4 mode of action” value in assay [6] is “Agon”.
As for `CCOc1ccc(CCOc2c(Cl)cc(CC[C@@](C)(N)CO)cc2OC)cc1` [Example 9, (R-2-Amino-4-{3-chloro-4-[2-(4-ethoxy-phenyl)-ethoxy]-5-methoxy-phenyl}-2-methyl-butan-1-ol Hydrotriflate], the “dose giving depletion … by more than 50%” value in assay [1] (after 6 h) is on record as 0.2 mg/kg.
Consider `CCOc1ccc(CCOc2c(Cl)cc(CC[C@@](C)(N)COP(=O)(O)O)cc2OC)cc1` [Example 10, Phosphoric acid mono-((R)-2-amino-4-{3-chloro-4-[2-(4-ethoxy-phenyl)-ethoxy]-5-methoxy-phenyl}-2-methyl-butyl)ester], for which the EC50 is 0.3 nM in assay [2]; 2.5 nM in assay [3]; > 10000 nM in assay [4]; 111 nM in assay [5]; > 10000 nM in assay [6].
